Experimental data published in patent US8003659B2, “Macrocyclic serine protease inhibitors” (Indenix Pharmaceuticals, Inc., priority 2008, dated 2011).

Tests used:
HCV NS3-NS4A protease = biological target: T1, HCV NS3-NS4A protease (Hepatitis C virus genotype 1b, UniProt P26663); assay: HCV Protease Assay (SensoLyte 620 HCV Protease Assay kit); format: biochemical; conditions: 1.2 nM HCV NS3-NS4A protease, 60 min at room temperature, 5% DMSO
T1 construct: made in house
Protocol: General procedure: Measurement of the inhibitory effect of compounds on HCV protease activity was performed with the SensoLyte™ 620 HCV Protease Assay kit from AnaSpec, Inc. (San Jose, Calif.) under conditions described by the supplier using 1.2 nM HCV NS3-NS4A protease, which was obtained according to Taremi et al. (Protein Science, 1998, 7, 2143-2149). The compounds were tested at a variety of concentrations in assay buffer containing a final DMSO concentration of 5%. Reactions were allowed to proceed for 60 min at room temperature and fluorescence measurements were recorded with a Tecan Infinity Spectrofluorimeter. The IC50 values were determined from the percent inhibition versus concentration data using a sigmoidal non-linear regression analysis based on four parameters with Tecan Magellan software.

[1] = test system: Huh-7 cells containing HCV Con1 subgenomic replicon (GS4.1 cells); assay: HCV Replicon Assay (NS4A ELISA); format: cell-based; conditions: Hepatitis C virus, Huh-7, 72 hr, NS4A protein by ELISA
Protocol: General procedure: Huh-7 cells containing HCV Con1 subgenomic replicon (GS4.1 cells) were grown in Dulbecco's Modified Eagle Medium (DMEM) supplemented with 10% fetal bovine serum (FBS), 2 mM L-glutamine, 110 mg/L sodium pyruvate, 1× non-essential amino acids, 100 U/mL penicillin-streptomycin, and 0.5 mg/mL G418 (Invitrogen). For dose-response testing, the cells were seeded in 96-well plates at 7.5×10^3 cells/well in a volume of 50 μL, and incubated at 37° C./5% CO2. Three hours after plating, 50 μL of ten 2-fold serial dilutions of compounds (highest concentration, 75 μM) were added, and cell cultures were incubated at 37° C./5% CO2 in the presence of 0.5% DMSO. Alternatively, compounds were tested at a single concentration of 15 μM. In all cases, Huh-7 cells lacking the HCV replicon served as negative control. The cells were incubated in the presence of compounds for 72 hr after which they were monitored for expression of the NS4A protein by enzyme-linked immunosorbent assay (ELISA). For this, the plates were then fixed for 1 min with acetone/methanol (1:1, v/v), washed twice with phosphate-buffered saline (PBS), 0.1% Tween 20, blocked for 1 hr at room temperature with TNE buffer containing 10% FBS and then incubated for 2 hr at 37° C. with the anti-NS4A mouse monoclonal antibody A-236 (ViroGen) diluted in the same buffer. After washing three times with PBS, 0.1% Tween 20, the cells were incubated 1 hr at 37° C. with anti-mouse immunoglobulin G-peroxidase conjugate in TNE, 10% FBS. After washing as described above, the reaction was developed with O-phenylenediamine (Zymed). The reaction was stopped after 30 min with 2 NH2SO4, and absorbance was read at 492 nm using Sunrise Tecan spectrophotometer. EC50 values were determined from the % inhibition versus concentration data using a sigmoidal non-linear regression analysis based on four parameters with Tecan Magellan software. When screening at a single concentration, the results were expressed as % inhibition at 15 μM.

[2] = Cytotoxicity evaluation (Cell Titer 96 AQueous One Solution Cell Proliferation Assay); format: cell-based; conditions: human; GS4.1 cells, cellular viability
Protocol: For cytotoxicity evaluation, GS4.1 cells were treated with compounds as described above and cellular viability was monitored using the Cell Titer 96 AQueous One Solution Cell Proliferation Assay (Promega). CC50 values were determined from the % cytotoxicity versus concentration data with Tecan Magellan software as described above.

T1 sequence (P26663 1027-1208): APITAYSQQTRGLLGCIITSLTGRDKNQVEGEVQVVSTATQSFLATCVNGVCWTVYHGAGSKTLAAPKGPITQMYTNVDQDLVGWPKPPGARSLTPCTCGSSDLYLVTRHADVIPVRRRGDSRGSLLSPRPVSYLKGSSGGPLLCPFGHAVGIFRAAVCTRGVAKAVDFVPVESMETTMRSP

Row | SMILES | IC50 (HCV NS3-NS4A protease) [nM] | EC50 [1] [nM] | CC50 [2] [µM]
1 | COc1ccc2c(O[C@H]3C[C@H]4C(=O)N(C)CCCC/C=C\[C@@H]5C[C@@]5(C(=O)NS(=O)(=O)C5(C)CC5)NC(=O)N4C3)cc(-n3ccc(C(F)(F)F)n3)nc2c1C [Compound 91c, (Z)-(4R,6S,15S,17S)-[17-[7-methoxy-8-methyl-2-(3-trifluoromethyl-1H-pyrazol-1-yl)quinolin-4-yloxy]-13-N-methyl-2,14-dioxo-1,3,13-triazatricyclo[13.3.0.0]octadec-7-ene-4-yl]carbonyl(1-methylcyclopropyl)sulfonamide] | < 1000 | < 1000 | > 75
2 | COc1ccc2c(O[C@H]3C[C@H]4C(=O)N(C)CCCC/C=C\[C@@H]5C[C@@]5(C(=O)NS(=O)(=O)C5(C)CC5)NC(=O)N4C3)cc(-c3nc(C4CCC4)cs3)nc2c1Cl [AC3, (Z)-(4R,6S,15S,17S)-[17-[8-chloro-7-methoxy-2-(4-cyclobutylthiazol-2-yl)quinolin-4-yloxy]-13-N-methyl-2,14-dioxo-1,3,13-triazatricyclo-[13.3.0.0]octadec-7-en-4-yl]carbonyl-(1-methylcyclopropyl)sulfonamide] | < 1000 | < 1000 | > 75
3 | COc1ccc2c(O[C@H]3C[C@H]4C(=O)N(C)CCCC/C=C\[C@@H]5C[C@@]5(C(=O)NS(=O)(=O)C5CC5)NC(=O)N4C3)cc(-n3ccc(C(F)(F)F)n3)nc2c1C [Compound 91g, (Z)-(4R,6S,15S,17S)-[17-[7-methoxy-8-methyl-2-(3-trifluoromethyl-1H-pyrazol-1-yl)quinolin-4-yloxy]-13-N-methyl-2,14-dioxo-1,3,13-triazatricyclo[13.3.0.0]octadec-7-ene-4-yl]carbonyl(cyclopropyl)sulfonamide] | < 1000 | < 1000 | > 75
4 | COc1cc(C)c2nc(-c3nc(C(C)C)cs3)cc(O[C@H]3C[C@H]4C(=O)N(C)CCCC/C=C\[C@@H]5C[C@@]5(C(=O)NS(=O)(=O)C5(C)CC5)NC(=O)N4C3)c2c1 [Compound 56f, (Z)-(4R,6S,15S,17S)-[17-[6-methoxy-8-methyl-2-(4-isopropylthiazol-2-yl)quinolin-4-yloxy]-13-N-methyl-2,14-dioxo-1,3,13-triazatricyclo[13.3.0.0]octadec-7-en-4-yl]carbonyl(1-methyl-cyclopropyl)sulfonamide] | < 1000 | < 1000 | > 75
5 | C#Cc1csc(-c2cc(O[C@H]3C[C@H]4C(=O)N(C)CCCC/C=C\[C@@H]5C[C@@]5(C(=O)NS(=O)(=O)C5CC5)NC(=O)N4C3)c3ccc(OC)c(C)c3n2)n1 [Compound G3, (Z)-(4R,6S,15S,17S)-[17-[7-methoxy-8-methyl-2-(4-ethynylthiazol-2-yl)quinolin-4-yloxy]-13-N-methyl-2,14-dioxo-1,3,13-triazatricyclo-[13.3.0.0]octadec-7-en-4-yl]carbonyl(cyclopropyl)sulfonamide] | < 1000 | < 1000 | 10 to 75
6 | COc1ccc2c(O[C@H]3C[C@H]4C(=O)N(C)CCCC/C=C\[C@@H]5C[C@@]5(C(=O)NS(=O)(=O)C5(C)CC5)NC(=O)N4C3)cc(-c3nc(C(F)(F)F)cs3)nc2c1Cl [Compound 68d, (Z)-(4R,6S,15S,17S)-[17-[8-chloro-7-methoxy-2-(4-trifluoromethythiazol-2-yl)quinolin-4-yloxy]-13-N-methyl-2,14-dioxo-1,3,13-triazatricyclo[13.3.0.0]octadec-7-en-4-yl]carbonyl(1-methylcyclopropyl)sulfonamide] | < 1000 | < 1000 | > 75
7 | COc1ccc2c(O[C@H]3C[C@H]4C(=O)N(C)CCCC/C=C\[C@@H]5C[C@@]5(C(=O)NS(=O)(=O)C5(C)CC5)NC(=O)N4C3)cc(-c3nc(C(C)C)cs3)nc2c1Br [Compound 56h, (Z)-(4R,6S,15S,17S)-[17-[8-bromo-7-methoxy-2-(4-isopropylthiazol-2-yl)quinolin-4-yloxy]-13-N-methyl-2,14-dioxo-1,3,13-triazatricyclo[13.3.0.0]octadec-7-en-4-yl]carbonyl(1-methyl-cyclopropyl)sulfonamide] | < 1000 | < 1000 | > 75
8 | COc1ccc2c(O[C@H]3C[C@H]4C(=O)N(C)CCCC/C=C\[C@@H]5C[C@@]5(C(=O)NS(=O)(=O)C5CC5)NC(=O)N4C3)cc(-c3csc(C(F)(F)F)n3)nc2c1C [Compound O3, (Z)-(4R,6S,15S,17S)-[17-[7-methoxy-8-methyl-2-(2-trifluoromethylthiazol-4-yl)quinolin-4-yloxy]-13-N-methyl-2,14-dioxo-1,3,13-triazatricyclo-[13.3.0.0]octadec-7-en-4-yl]carbonyl-(cyclopropyl)sulfonamide] | < 1000 | < 1000 | 10 to 75
9 | COc1ccc2c(O[C@H]3C[C@H]4C(=O)N(C)CCCC/C=C\[C@@H]5C[C@@]5(C(=O)NS(=O)(=O)C5(C)CC5)NC(=O)N4C3)cc(-c3csc(C(C)C)n3)nc2c1Cl [Compound 101d, (Z)-(4R,6S,15S,17S)-[17-[8-chloro-7-methoxy-2-(2-isopropythiazol-4-yl)quinolin-4-yloxy]-13-N-methyl-2,14-dioxo-1,3,13-triazatricyclo[13.3.0.0]octadec-7-ene-4-yl]carbonyl(1-methylcyclopropyl)sulfonamide] | < 1000 | < 1000 | > 75
10 | COc1ccc2c(O[C@H]3C[C@H]4C(=O)N(C)CCCC/C=C\[C@@H]5C[C@@]5(C(=O)NS(=O)(=O)C5(C)CC5)NC(=O)N4C3)cc(-c3csc(C(F)(F)F)n3)nc2c1C [Compound O4, (Z)-(4R,6S,15S,17S)-[17-[7-methoxy-8-methyl-2-(2-trifluoromethylthiazol-4-yl)quinolin-4-yloxy]-13-N-methyl-2,14-dioxo-1,3,13-triazatricyclo-[13.3.0.0]octadec-7-en-4-yl]carbonyl-(1-methylcyclopropyl)sulfonamide] | < 1000 | < 1000 | > 75
11 | COc1ccc2c(O[C@H]3C[C@H]4C(=O)N(C)CCCC/C=C\[C@@H]5C[C@@]5(C(=O)NS(C)(=O)=O)NC(=O)N4C3)cc(-c3nc(C(C)C)cs3)nc2c1C [Compound 63b] | < 1000 | 1000 to 10000 | > 75
12 | COc1ccc2c(O[C@H]3C[C@H]4C(=O)N(C)CCCC/C=C\[C@@H]5C[C@@]5(C(=O)NS(=O)(=O)C5(C)CC5)NC(=O)N4C3)nc(-c3nc(C(C)C)cs3)nc2c1Cl [Compound 110d, (Z)-(4R,6S,15S,17S)-[17-[8-chloro-7-methoxy-2-(4-isopropylthiazol-2-yl)quinazolin-4-yloxy]-13-N-methyl-2,14-dioxo-1,3,13-triazatricyclo[13.3.0.0]octadec-7-ene-4-yl]carbonyl(1-methylcyclopropyl)sulfonamide] | < 1000 | < 1000 | > 75
13 | COc1ccc2c(O[C@H]3C[C@H]4C(=O)N(C)CCCC/C=C\[C@@H]5C[C@@]5(C(=O)NS(=O)(=O)C5(C)CC5)NC(=O)N4C3)cc(-c3cc(C(C)C)on3)nc2c1Cl [Compound 96d, (Z)-(4R,6S,15S,17S)-[17-[8-chloro-7-methoxy-2-(5-isopropylisoxazol-3-yl)quinolin-4-yloxy]-13-N-methyl-2,14-dioxo-1,3,13-triazatricyclo[13.3.0.0]octadec-7-ene-4-yl]carbonyl(1-methylcyclopropyl)sulfonamide] | < 1000 | 1000 to 10000 | > 75
14 | COc1ccc2c(O[C@H]3C[C@H]4C(=O)N(C)CCCC/C=C\[C@@H]5C[C@@]5(C(=O)NS(=O)(=O)C5CC5)NC(=O)N4C3)cc(-c3nc(C4CC4)cs3)nc2c1Cl [AC1, (Z)-(4R,6S,15S,17S)-[17-[8-chloro-7-methoxy-2-(4-cyclopropylthiazol-2-yl)quinolin-4-yloxy]-13-N-methyl-2,14-dioxo-1,3,13-triazatricyclo-[13.3.0.0]octadec-7-en-4-yl]carbonyl-(cyclopropyl)sulfonamide] | < 1000 | < 1000 | 10 to 75
